Source: ChEMBL document CHEMBL4354838, “Synthesis and in Vitro and in Vivo Biological Evaluation of Tissue-Specific Bisthiazole Histone Deacetylase (HDAC) Inhibitors” (J Med Chem, 2020)
pIC50: −log10 of the molar value. Values belong to the compound of their own block, whether it stands above or below them.

Assays:
[1] = molecular target: Histone deacetylase 2 (Homo sapiens, UniProt Q92769); assay: biochemical; format: cell-based
Description: Inhibition of recombinant human His6/GST-tagged HDAC2 expressed in baculovirus infected High5 insect cells using Ac-Lys-Tyr-Lys(epsilon-acetyl)-AMC as susbtrate after 24 hrs by fluorescence based assay

[2] = molecular target: Histone deacetylase 4 (Homo sapiens, UniProt P56524); assay: biochemical; format: cell-based
Description: Inhibition of recombinant human His6/GST-tagged HDAC4 expressed in baculovirus infected High5 insect cells using Ac-Leu-Gly-Lys(Tfa)-AMC as substrate after 24 hrs by fluorescence based assay

[3] = molecular target: Histone deacetylase 5 (Homo sapiens, UniProt Q9UQL6); assay: biochemical; format: cell-based, Sf9
Description: Inhibition of recombinant N-terminal GST-tagged full length human HDAC5 expressed in baculovirus infected Sf9 cells using Ac-Leu-Gly-Lys(Tfa)-AMC as substrate after 24 hrs by fluorescence based assay

[4] = molecular target: Histone deacetylase 7 (Homo sapiens, UniProt Q8WUI4); assay: biochemical; format: cell-based, Sf9
[5] = molecular target: Histone deacetylase 8 (Homo sapiens, UniProt Q9BY41); assay: biochemical; format: cell-based
Description: Inhibition of recombinant human His6/GST-tagged HDAC8 expressed in baculovirus infected High5 insect cells using Ac-Lys-Tyr-Lys(epsilon-acetyl)-AMC as susbtrate after 24 hrs by fluorescence based assay

[6] = molecular target: Histone deacetylase 9 (Homo sapiens, UniProt Q9UKV0); assay: biochemical; format: cell-based, Sf9
[7] = molecular target: Polyamine deacetylase HDAC10 (Homo sapiens, UniProt Q969S8); assay: biochemical; format: cell-based
Description: Inhibition of recombinant human His6/GST-tagged HDAC10 expressed in baculovirus infected High5 insect cells using Ac-Lys-Tyr-Lys(epsilon-acetyl)-AMC as susbtrate after 24 hrs by fluorescence based assay

[8] = molecular target: Histone deacetylase 11 (Homo sapiens, UniProt Q96DB2); assay: biochemical; format: cell-based
Description: Inhibition of recombinant human His6/GST-tagged HDAC11 expressed in baculovirus infected High5 insect cells using Ac-Lys-Tyr-Lys(epsilon-acetyl)-AMC as susbtrate after 24 hrs by fluorescence based assay

[9] = molecular target: NAD-dependent protein deacetylase sirtuin-1 (Homo sapiens, UniProt Q96EB6)
Description: Inhibition of recombinant human N-terminal GST-tagged SIRT1 expressed in Escherichia coli using Ac-Arg-His-Lys-Lys(Ac)-AMC as susbtrate after 1 hr by fluorescence based assay

[10] = molecular target: NAD-dependent protein deacetylase sirtuin-2 (Homo sapiens, UniProt Q8IXJ6)
Description: Inhibition of recombinant human N-terminal GST-tagged SIRT2 expressed in Escherichia coli using Ac-Arg-His-Lys-Lys(Ac)-AMC as susbtrate after 2 hrs by fluorescence based assay

[11] = molecular target: NAD-dependent protein deacetylase sirtuin-3, mitochondrial (Homo sapiens, UniProt Q9NTG7)
Description: Inhibition of recombinant human N-terminal His-tagged SIRT3 expressed in Escherichia coli using Ac-Arg-His-Lys-Lys(Ac)-AMC as susbtrate after 2 hrs by fluorescence based assay

[12] = system: Bel-7402; assay: cells; format: functional, cell-based; details: Homo sapiens, Bel-7402, 72 h
Description: Antiproliferative activity against human Bel7402 cells assessed as reduction in cell growth after 72 hrs

[13] = system: NCI-H1975; assay: cells; format: functional, cell-based; details: Homo sapiens, NCI-H1975, 72 h
Description: Antiproliferative activity against human NCI-H1975 cells assessed as reduction in cell growth after 72 hrs

[14] = system: EBC-1; assay: cells; format: functional, cell-based; details: Homo sapiens, EBC-1, 72 h
Description: Antiproliferative activity against human EBC1 cells assessed as reduction in cell growth after 72 hrs

[15] = system: MCF7; assay: cells; format: functional, cell-based; details: Homo sapiens, MCF7, 72 h
Description: Antiproliferative activity against human MCF7 cells assessed as reduction in cell growth after 72 hrs

[16] = system: MDA-MB-231; assay: cells; format: functional, cell-based; details: Homo sapiens, MDA-MB-231, 72 h
Description: Antiproliferative activity against human MDA-MB-231 cells assessed as reduction in cell growth after 72 hrs

[17] = system: T47D; assay: cells; format: functional, cell-based; details: Homo sapiens, 72 h
Description: Antiproliferative activity against human T47D cells assessed as reduction in cell growth after 72 hrs

[18] = system: NCI-N87; assay: cells; format: functional, cell-based; details: Homo sapiens, NCI-N87, 72 h
Description: Antiproliferative activity against human NCI-N87 cells assessed as reduction in cell growth after 72 hrs

[19] = system: HT-29; assay: cells; format: functional, cell-based; details: Homo sapiens, HT-29, 72 h
Description: Antiproliferative activity against human HT-29 cells assessed as reduction in cell growth after 72 hrs

[20] = system: HT-29; format: functional, Homo sapiens; details: at 50 mg/kg
Description: Antitumor activity against human HT-29 cells xenografted in nude mouse assessed as reduction in tumor growth at 50 mg/kg, po qd for 21 days relative to control

[21] = system: HT-29; format: functional, Homo sapiens; details: at 100 mg/kg
Description: Antitumor activity against human HT-29 cells xenografted in nude mouse assessed as reduction in tumor growth at 100 mg/kg, po qd for 21 days relative to control

[22] = system: HT-29; format: functional, Homo sapiens; details: at 25 mg/kg
Description: Antitumor activity against human HT-29 cells xenografted in nude mouse assessed as reduction in tumor growth at 25 mg/kg, po qd for 21 days relative to control

[23] = mouse, in vivo
[24] = mouse, in vivo; remark: listed apart in the source
[25] = mouse, in vivo; remark: listed apart in the source
[26] = mouse, in vivo; remark: listed apart in the source
[27] = mouse, in vivo; remark: listed apart in the source
[28] = mouse, in vivo; remark: listed apart in the source
[29] = mouse, in vivo; remark: listed apart in the source
[30] = mouse, in vivo; remark: listed apart in the source
[31] = mouse, in vivo; remark: listed apart in the source
[32] = mouse, in vivo; remark: listed apart in the source
[33] = mouse, in vivo; remark: listed apart in the source
[34] = human, hepatocytes, 3 h, 3 µM
[35] = cynomolgus monkey, hepatocytes, 3 h, 3 µM
[36] = dog, hepatocytes, 3 h, 3 µM
[37] = rat, hepatocytes, 3 h, 3 µM
[38] = mouse, hepatocytes, 3 h, 3 µM
[39] = human, hepatocytes, 3 h, 3 µM; remark: listed apart in the source
[40] = cynomolgus monkey, hepatocytes, 3 h, 3 µM; remark: listed apart in the source
[41] = dog, hepatocytes, 3 h, 3 µM; remark: listed apart in the source
[42] = rat, hepatocytes, 3 h, 3 µM; remark: listed apart in the source
[43] = mouse, hepatocytes, 3 h, 3 µM; remark: listed apart in the source
[44] = human, hepatocytes, 3 h, 3 µM; remark: listed apart in the source
[45] = cynomolgus monkey, hepatocytes, 3 h, 3 µM; remark: listed apart in the source
[46] = dog, hepatocytes, 3 h, 3 µM; remark: listed apart in the source
[47] = rat, hepatocytes, 3 h, 3 µM; remark: listed apart in the source
[48] = mouse, hepatocytes, 3 h, 3 µM; remark: listed apart in the source
[49] = human, hepatocytes, 3 h, 3 µM; remark: listed apart in the source
[50] = cynomolgus monkey, hepatocytes, 3 h, 3 µM; remark: listed apart in the source
[51] = dog, hepatocytes, 3 h, 3 µM; remark: listed apart in the source
[52] = rat, hepatocytes, 3 h, 3 µM; remark: listed apart in the source
[53] = mouse, hepatocytes, 3 h, 3 µM; remark: listed apart in the source
[54] = mouse, in vivo, po, 50 mg/kg, 1 h
[55] = mouse, in vivo, po, 50 mg/kg, 1 h; remark: listed apart in the source
[56] = mouse, in vivo, po, 50 mg/kg, 1 h; remark: listed apart in the source
[57] = mouse, in vivo, po, 50 mg/kg, 1 h; remark: listed apart in the source
[58] = mouse, in vivo, po, 50 mg/kg, 1 h; remark: listed apart in the source
[59] = mouse, in vivo, po, 50 mg/kg, 1 h; remark: listed apart in the source
[60] = mouse, in vivo, po, 50 mg/kg, 1 h; remark: listed apart in the source
[61] = mouse, in vivo, po, 50 mg/kg, 1 h; remark: listed apart in the source
[62] = mouse, in vivo, po, 50 mg/kg, 1 h; remark: listed apart in the source
[63] = mouse, in vivo, po, 50 mg/kg, 1 h; remark: listed apart in the source
[64] = mouse, in vivo, po, 50 mg/kg, 1 h; remark: listed apart in the source
[65] = mouse, in vivo, po, 50 mg/kg, 6 h
[66] = mouse, in vivo, iv, 10 mg/kg
[67] = mouse, in vivo, iv, 10 mg/kg; remark: listed apart in the source
[68] = human, hepatocytes, 3 h, 3 µM; remark: listed apart in the source
[69] = cynomolgus monkey, hepatocytes, 3 h, 3 µM; remark: listed apart in the source
[70] = dog, hepatocytes, 3 h, 3 µM; remark: listed apart in the source
[71] = rat, hepatocytes, 3 h, 3 µM; remark: listed apart in the source
[72] = mouse, hepatocytes, 3 h, 3 µM; remark: listed apart in the source
[73] = human, hepatocytes, 3 h, 3 µM; remark: listed apart in the source
[74] = cynomolgus monkey, hepatocytes, 3 h, 3 µM; remark: listed apart in the source
[75] = dog, hepatocytes, 3 h, 3 µM; remark: listed apart in the source
[76] = rat, hepatocytes, 3 h, 3 µM; remark: listed apart in the source
[77] = mouse, hepatocytes, 3 h, 3 µM; remark: listed apart in the source
[78] = in vivo; details: ICR, mouse, iv, 2 mg/kg
[79] = in vivo; details: ICR, mouse, iv, 2 mg/kg; remark: listed apart in the source
[80] = in vivo; details: ICR, mouse, iv, 2 mg/kg; remark: listed apart in the source
[81] = in vivo; details: ICR, mouse, iv, 2 mg/kg; remark: listed apart in the source
[82] = in vivo; details: ICR, mouse, po, 5 mg/kg
[83] = in vivo; details: ICR, mouse, po, 5 mg/kg; remark: listed apart in the source
[84] = in vivo; details: ICR, mouse, po, 5 mg/kg; remark: listed apart in the source
[85] = in vivo; details: ICR, mouse, po, 5 mg/kg; remark: listed apart in the source
[86] = in vivo; details: ICR, mouse, po, 5 mg/kg; remark: listed apart in the source
Description: Mean residence time in ICR mouse at 5 mg/kg, po after 1 hr to 24 hrs by LC-MS analysis

[87] = in vivo; details: ICR, mouse, po, 5 mg/kg; remark: listed apart in the source
Description: Half life in ICR mouse at 5 mg/kg, po measured up to 24 hrs by LC-MS analysis

[88] = in vivo; details: ICR, mouse, po, 5 mg/kg; remark: listed apart in the source
[89] = in vivo; details: ICR, mouse, other tissue
[90] = in vivo; details: ICR, mouse, other tissue; remark: listed apart in the source
[91] = in vivo; details: ICR, mouse, other tissue; remark: listed apart in the source
[92] = in vivo; details: ICR, mouse, other tissue; remark: listed apart in the source
[93] = in vivo; details: ICR, mouse, other tissue; remark: listed apart in the source
[94] = in vivo; details: ICR, mouse, other tissue; remark: listed apart in the source
[95] = in vivo; details: female, ICR, mouse, other tissue
[96] = in vivo; details: female, ICR, mouse, other tissue; remark: listed apart in the source
[97] = in vivo; details: male, ICR, mouse, other tissue
[98] = in vivo; details: ICR, mouse, brain
[99] = molecular target: Histone deacetylase 1 (Homo sapiens, UniProt Q13547); assay: biochemical; format: cell-based
Sequence of Histone deacetylase 1 (Q13547 whole entry): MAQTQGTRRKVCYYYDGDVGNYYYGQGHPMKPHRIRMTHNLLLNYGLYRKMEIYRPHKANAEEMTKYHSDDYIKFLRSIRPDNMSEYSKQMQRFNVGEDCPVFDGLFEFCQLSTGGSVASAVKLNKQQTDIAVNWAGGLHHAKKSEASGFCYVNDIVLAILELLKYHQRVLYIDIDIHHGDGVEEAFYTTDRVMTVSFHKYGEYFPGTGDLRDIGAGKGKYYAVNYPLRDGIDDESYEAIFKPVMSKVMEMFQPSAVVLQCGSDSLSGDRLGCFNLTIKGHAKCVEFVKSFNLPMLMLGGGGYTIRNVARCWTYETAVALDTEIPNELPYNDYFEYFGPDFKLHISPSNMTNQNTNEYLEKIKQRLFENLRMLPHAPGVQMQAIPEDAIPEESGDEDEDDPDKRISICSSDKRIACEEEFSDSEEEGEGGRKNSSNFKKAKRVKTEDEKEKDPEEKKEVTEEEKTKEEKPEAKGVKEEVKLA
Description: Inhibition of recombinant His6/GST-tagged human HDAC1 expressed in baculovirus infected High5 insect cells using Ac-Lys-Tyr-Lys(epsilon-acetyl)-AMC as substrate after 24 hrs by fluorescence based assay

Sequence of NAD-dependent protein deacetylase sirtuin-3, mitochondrial (Q9NTG7 whole entry): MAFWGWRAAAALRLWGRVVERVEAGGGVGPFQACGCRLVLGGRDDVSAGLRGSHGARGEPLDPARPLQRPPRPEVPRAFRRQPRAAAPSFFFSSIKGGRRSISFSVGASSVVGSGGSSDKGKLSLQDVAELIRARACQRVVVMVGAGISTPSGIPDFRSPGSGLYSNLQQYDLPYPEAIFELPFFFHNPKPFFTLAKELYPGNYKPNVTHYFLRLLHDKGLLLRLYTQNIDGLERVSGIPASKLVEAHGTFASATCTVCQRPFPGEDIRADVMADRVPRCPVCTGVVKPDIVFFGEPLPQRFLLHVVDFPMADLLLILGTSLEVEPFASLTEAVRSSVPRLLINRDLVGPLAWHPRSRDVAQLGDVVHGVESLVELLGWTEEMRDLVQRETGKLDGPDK
Sequence of NAD-dependent protein deacetylase sirtuin-1 (Q96EB6 whole entry): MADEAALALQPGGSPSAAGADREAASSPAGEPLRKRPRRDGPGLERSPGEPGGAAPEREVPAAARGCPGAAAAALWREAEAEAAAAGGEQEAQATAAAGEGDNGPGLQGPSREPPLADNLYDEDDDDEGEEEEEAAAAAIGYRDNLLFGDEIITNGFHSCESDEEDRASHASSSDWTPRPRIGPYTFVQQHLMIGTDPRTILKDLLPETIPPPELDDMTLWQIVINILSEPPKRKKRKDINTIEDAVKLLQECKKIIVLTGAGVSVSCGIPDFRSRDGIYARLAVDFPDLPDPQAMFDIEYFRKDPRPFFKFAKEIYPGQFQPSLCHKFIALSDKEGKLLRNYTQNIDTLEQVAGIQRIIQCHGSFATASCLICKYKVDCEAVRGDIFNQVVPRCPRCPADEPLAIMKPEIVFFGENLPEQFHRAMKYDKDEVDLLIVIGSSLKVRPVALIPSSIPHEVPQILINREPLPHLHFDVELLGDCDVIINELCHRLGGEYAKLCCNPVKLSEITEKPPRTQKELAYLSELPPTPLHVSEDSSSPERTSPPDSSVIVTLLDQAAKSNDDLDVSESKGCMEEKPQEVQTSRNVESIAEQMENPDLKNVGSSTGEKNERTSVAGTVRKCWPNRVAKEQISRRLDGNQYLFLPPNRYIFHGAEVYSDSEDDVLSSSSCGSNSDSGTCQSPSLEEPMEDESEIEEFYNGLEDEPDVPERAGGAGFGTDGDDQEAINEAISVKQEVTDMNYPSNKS
Sequence of NAD-dependent protein deacetylase sirtuin-2 (Q8IXJ6 whole entry): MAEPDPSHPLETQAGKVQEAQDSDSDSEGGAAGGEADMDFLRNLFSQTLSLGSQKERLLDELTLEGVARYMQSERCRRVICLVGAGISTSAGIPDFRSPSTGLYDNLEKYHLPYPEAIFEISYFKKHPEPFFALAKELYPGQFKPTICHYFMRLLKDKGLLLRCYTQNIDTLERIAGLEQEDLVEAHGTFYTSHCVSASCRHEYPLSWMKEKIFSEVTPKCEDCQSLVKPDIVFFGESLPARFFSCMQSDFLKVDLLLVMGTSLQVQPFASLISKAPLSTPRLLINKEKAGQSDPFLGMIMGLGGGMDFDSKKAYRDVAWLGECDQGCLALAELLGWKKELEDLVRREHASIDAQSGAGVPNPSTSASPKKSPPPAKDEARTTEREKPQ
Sequence of Histone deacetylase 4 (P56524 whole entry): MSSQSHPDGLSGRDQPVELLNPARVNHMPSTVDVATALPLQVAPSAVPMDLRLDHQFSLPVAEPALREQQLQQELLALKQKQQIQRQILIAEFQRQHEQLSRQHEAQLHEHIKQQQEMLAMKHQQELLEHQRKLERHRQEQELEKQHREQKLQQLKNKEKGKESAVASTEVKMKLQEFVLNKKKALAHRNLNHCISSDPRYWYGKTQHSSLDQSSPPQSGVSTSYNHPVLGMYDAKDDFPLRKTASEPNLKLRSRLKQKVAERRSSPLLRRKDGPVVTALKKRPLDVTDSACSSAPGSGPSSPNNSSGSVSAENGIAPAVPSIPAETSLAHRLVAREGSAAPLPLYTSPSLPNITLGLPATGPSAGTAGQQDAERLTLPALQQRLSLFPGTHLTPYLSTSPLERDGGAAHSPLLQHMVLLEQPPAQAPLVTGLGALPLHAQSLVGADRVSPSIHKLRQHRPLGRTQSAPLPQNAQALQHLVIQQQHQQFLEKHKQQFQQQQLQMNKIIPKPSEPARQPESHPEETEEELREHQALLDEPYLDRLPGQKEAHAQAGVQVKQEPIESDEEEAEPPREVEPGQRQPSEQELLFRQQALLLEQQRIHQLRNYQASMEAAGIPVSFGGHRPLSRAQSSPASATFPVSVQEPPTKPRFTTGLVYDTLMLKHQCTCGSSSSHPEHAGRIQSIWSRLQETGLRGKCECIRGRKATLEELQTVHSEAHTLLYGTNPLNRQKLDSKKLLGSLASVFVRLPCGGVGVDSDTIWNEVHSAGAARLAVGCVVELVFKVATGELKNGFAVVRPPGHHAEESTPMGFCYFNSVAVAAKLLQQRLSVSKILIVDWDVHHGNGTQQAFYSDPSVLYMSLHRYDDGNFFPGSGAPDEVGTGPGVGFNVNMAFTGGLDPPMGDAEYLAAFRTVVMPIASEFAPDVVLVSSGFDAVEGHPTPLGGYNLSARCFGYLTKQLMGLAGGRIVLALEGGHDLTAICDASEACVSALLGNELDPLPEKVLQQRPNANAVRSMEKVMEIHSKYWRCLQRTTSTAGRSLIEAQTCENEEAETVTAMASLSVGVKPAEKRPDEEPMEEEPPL
Sequence of Histone deacetylase 2 (Q92769 whole entry): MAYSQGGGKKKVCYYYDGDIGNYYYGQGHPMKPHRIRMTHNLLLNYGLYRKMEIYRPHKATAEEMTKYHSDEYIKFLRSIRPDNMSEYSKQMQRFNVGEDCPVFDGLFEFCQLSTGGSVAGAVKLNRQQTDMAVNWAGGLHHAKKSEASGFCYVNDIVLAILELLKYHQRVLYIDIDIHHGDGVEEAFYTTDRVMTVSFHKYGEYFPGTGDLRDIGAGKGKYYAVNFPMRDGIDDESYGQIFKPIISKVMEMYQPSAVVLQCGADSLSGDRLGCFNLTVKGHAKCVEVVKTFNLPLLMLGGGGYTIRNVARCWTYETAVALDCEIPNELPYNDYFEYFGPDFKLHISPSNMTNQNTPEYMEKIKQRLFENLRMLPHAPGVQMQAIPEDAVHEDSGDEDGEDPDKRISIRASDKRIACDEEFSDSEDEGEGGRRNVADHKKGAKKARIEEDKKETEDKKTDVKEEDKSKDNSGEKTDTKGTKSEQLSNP
Sequence of Histone deacetylase 7 (Q8WUI4 whole entry): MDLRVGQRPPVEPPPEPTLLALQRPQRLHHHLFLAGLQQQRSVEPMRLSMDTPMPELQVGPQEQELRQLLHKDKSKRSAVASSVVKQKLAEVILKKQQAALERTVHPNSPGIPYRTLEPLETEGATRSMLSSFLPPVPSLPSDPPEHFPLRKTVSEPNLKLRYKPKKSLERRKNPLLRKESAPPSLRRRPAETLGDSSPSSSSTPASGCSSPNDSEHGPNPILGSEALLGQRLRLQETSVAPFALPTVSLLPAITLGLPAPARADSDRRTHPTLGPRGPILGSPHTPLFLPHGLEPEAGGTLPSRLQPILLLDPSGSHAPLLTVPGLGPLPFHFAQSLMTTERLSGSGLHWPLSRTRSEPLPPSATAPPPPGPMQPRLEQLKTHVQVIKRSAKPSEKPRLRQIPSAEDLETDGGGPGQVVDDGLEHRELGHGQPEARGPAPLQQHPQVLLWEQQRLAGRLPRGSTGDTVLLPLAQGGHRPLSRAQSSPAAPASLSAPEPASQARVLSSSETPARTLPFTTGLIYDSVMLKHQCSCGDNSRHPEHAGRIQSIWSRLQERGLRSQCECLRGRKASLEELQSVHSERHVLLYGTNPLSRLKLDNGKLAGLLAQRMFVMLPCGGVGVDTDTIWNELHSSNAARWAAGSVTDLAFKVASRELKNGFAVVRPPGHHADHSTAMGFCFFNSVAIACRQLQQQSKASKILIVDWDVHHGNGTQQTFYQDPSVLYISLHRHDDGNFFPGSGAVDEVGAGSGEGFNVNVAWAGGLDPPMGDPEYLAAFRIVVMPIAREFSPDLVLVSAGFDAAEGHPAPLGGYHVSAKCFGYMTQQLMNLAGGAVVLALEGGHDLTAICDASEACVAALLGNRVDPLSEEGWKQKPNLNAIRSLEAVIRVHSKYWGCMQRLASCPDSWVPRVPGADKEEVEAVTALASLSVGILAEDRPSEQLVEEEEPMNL
Sequence of Histone deacetylase 11 (Q96DB2 whole entry): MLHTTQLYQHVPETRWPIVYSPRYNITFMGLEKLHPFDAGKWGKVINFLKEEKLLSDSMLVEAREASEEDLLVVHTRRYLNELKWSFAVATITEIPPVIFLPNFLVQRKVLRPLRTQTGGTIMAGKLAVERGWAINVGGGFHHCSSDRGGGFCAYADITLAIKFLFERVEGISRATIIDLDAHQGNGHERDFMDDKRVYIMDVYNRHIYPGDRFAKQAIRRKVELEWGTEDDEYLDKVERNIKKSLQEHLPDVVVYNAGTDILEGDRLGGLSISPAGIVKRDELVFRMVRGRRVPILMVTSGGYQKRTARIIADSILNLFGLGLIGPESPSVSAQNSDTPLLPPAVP

pIC50 [1]: 7.88
pIC50 [2]: < 4.70
pIC50 [3]: 4.78
pIC50 [4]: < 4.70
pIC50 [5]: 7.77
pIC50 [6]: < 4.70
pIC50 [7]: 8.70
pIC50 [8]: 7.11
pIC50 [9]: < 4.70
pIC50 [10]: < 4.70
pIC50 [11]: < 4.70
pIC50 [12]: 7.09
pIC50 [13]: 7.18
pIC50 [14]: 6.96
pIC50 [15]: 7.23
pIC50 [16]: 7.12
pIC50 [17]: 7.39
pIC50 [18]: 7.55
pIC50 [19]: 6.78
AUC [23]: 105642 ng·h/g
AUC [24]: 8795 ng·h/g
AUC [25]: 6079 ng·h/g
AUC [26]: 5185 ng·h/g
AUC [27]: 4692 ng·h/g
AUC [28]: 3438 ng·h/g
AUC [29]: 2622 ng·h/g
AUC [30]: 1964 ng·h/g
AUC [31]: 1472 ng·h/g
AUC [32]: 698 ng·h/g
AUC [33]: 599 ng·h/g
Drug metabolism [34]: Metabolite_Detected
Drug metabolism [35]: Metabolite_Detected
Drug metabolism [36]: Metabolite_Detected
Drug metabolism [37]: Metabolite_Detected
Drug metabolism [38]: Metabolite_Detected
Drug metabolism [39]: Metabolite_Detected
Drug metabolism [40]: Metabolite_Detected
Drug metabolism [41]: Metabolite_Detected
Drug metabolism [42]: Metabolite_Detected
Drug metabolism [43]: Metabolite_Detected
Drug metabolism [44]: Metabolite_Detected
Drug metabolism [45]: Metabolite_Detected
Drug metabolism [46]: Metabolite_Detected
Drug metabolism [47]: Metabolite_Detected
Drug metabolism [48]: Metabolite_Detected
Drug metabolism [49]: Metabolite_Detected
Drug metabolism [50]: Metabolite_Detected
Drug metabolism [51]: Metabolite_Detected
Drug metabolism [52]: Metabolite_Detected
Drug metabolism [53]: Metabolite_Detected
Drug uptake [54]: Active
Drug uptake [55]: Active
Drug uptake [56]: Active
Drug uptake [57]: Active
Drug uptake [58]: Active
Drug uptake [59]: Active
Drug uptake [60]: Active
Drug uptake [61]: Active
Drug uptake [62]: Active
Drug uptake [63]: Active
Drug uptake [64]: Active
Drug uptake [65]: Active
Drug uptake [66]: Active
Drug uptake [67]: Active
Drug metabolism [68]: Metabolite_Notdetected
Drug metabolism [69]: Metabolite_Notdetected
Drug metabolism [70]: Metabolite_Notdetected
Drug metabolism [71]: Metabolite_Notdetected
Drug metabolism [72]: Metabolite_Notdetected
Drug metabolism [73]: Metabolite_Notdetected
Drug metabolism [74]: Metabolite_Notdetected
Drug metabolism [75]: Metabolite_Notdetected
Drug metabolism [76]: Metabolite_Notdetected
Drug metabolism [77]: Metabolite_Notdetected
AUC(0-t) [78]: 1080 ng·h/mL
AUC(0-inf) [79]: 1250 ng·h/mL
MRT [80]: 10.4 h
half-life [81]: 8.67 h
Tmax at 24 h [82]: 0.67 h
Cmax [83]: 138 ng/mL
AUC(0-t) [84]: 924 ng·h/mL
AUC(0-inf) [85]: 944 ng·h/mL
MRT [86]: 5.22 h
half-life at 24 h [87]: 4.23 h
bioavailability [88]: 34 to 34.4%
Kp [89]: 176
Kp [90]: 14.7
Kp [91]: 10.2
Kp [92]: 8.66
Kp [93]: 7.84
Kp [94]: 5.74
Kp [95]: 4.38
Kp [96]: 3.28
Kp [97]: 2.46
Kp [98]: 1.17
Structure (SMILES): C[C@H](NC(=O)c1nc(-c2ncc(-c3ccccc3)s2)sc1C1CC1)c1ccc(C(=O)NO)cc1
T/C [20]: 59.72%
T/C [21]: 37.56%
T/C [22]: 60.58%

pIC50 [99]: 7.65
Structure (SMILES): O=C(NO)c1ccc(C2(NC(=O)c3nc(-c4nccs4)sc3C3CC3)CC2)cc1

pIC50 [99]: 6.18
Structure (SMILES): CC(C)Cc1sc(-c2nccs2)nc1C(=O)Nc1ccc(/C=C/C(=O)NO)cc1

pIC50 [99]: 6.79
Structure (SMILES): CC(C)(NC(=O)c1nc(-c2nccs2)sc1C1CC1)c1ccc(C(=O)NO)cc1

pIC50 [9]: < 4.70
pIC50 [10]: < 4.70
pIC50 [11]: < 4.70
pIC50 [15]: 8.05
Structure (SMILES): Cc1[nH]c2ccccc2c1CCNCc1ccc(/C=C/C(=O)NO)cc1 [PANOBINOSTAT]
T/C [20]: 93.85%
